ChEMBL document CHEMBL1909294, “Translating clinical findings into knowledge in drug safety evaluation--drug induced liver injury prediction system (DILIps)” (PLoS Comput Biol, 2011)
*1 amine or outer side, *2 acyl side, *3 side chain or, on linkers, in order; H or OH if unused. Where a SMILES comes first, the peptide text is derived from it. Bridges are numbered along the chain shown (N, C = ends). [ ]: non-standard residue; d: D form. The star is where a group is joined. hTyr(3S-OH,4S-OH,3'-OSO3H) = N[C@H](C(=O)O)[C@H](O)[C@@H](O)c1ccc(O)c(OS(=O)(=O)O)c1; Orn(4R-OH,5R-OH) = O=C([C@H](C[C@@H](O)[C@@H](O)N[*:3])N[*:1])[*:2]; Pro(3S-OH,4S-Me) = C[C@H]1CN[C@H](C(=O)O)[C@H]1O; X1 = CCCCCOc1ccc(-c2cc(-c3ccc(C(=O)*)cc3)no2)cc1; Gln(3R-OH) = NC(=O)C[C@@H](O)[C@H](N)C(=O)O; Hyp = O=C(O)[C@@H]1C[C@@H](O)CN1

Columns and labels:
Hepatotoxicity [1] = tested on: Hepatotoxicity;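 on HepSE Combined Scores: combined hepatic side effect score as listed in the training data of the Drug Induced Liver Injury Prediction System (DILIps)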;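 on HepSE elevated liver function tests: hepatic side effect score for raised liver function tests, as recorded in the DILIps training set used for predicting drug-induced liver injury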;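 on HepSE hepatitis: Hepatitis-related hepatic side effect score taken from the training data of DILIps, a prediction system for drug-induced liver injury; call rule not given here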;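 on HepSE hepatomegaly: hepatic side effect score for hepatomegaly, taken from the training set of the DILIps drug-induced liver injury prediction system; call rule not given here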;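 on HepSE liver fatty: hepatic side effect score for fatty liver, taken from the DILIps training set for predicting drug-induced liver injury; call rule not given here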;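 on HepSE liver function tests abnormal: hepatic side effect score taken from the DILIps (drug-induced liver injury prediction system) training data, here covering abnormal liver function test findings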
Hepatotoxicity [2] = tested on: Hepatotoxicity; remark: listed apart in the source;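 on HepSE Combined Scores: combined hepatic side effect score as listed in the training data of the Drug Induced Liver Injury Prediction System (DILIps)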;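 on HepSE elevated liver function tests: hepatic side effect score for raised liver function tests, as recorded in the DILIps training set used for predicting drug-induced liver injury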;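 on HepSE hepatitis: Hepatitis-related hepatic side effect score taken from the training data of DILIps, a prediction system for drug-induced liver injury; call rule not given here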;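 on HepSE hepatomegaly: hepatic side effect score for hepatomegaly, taken from the training set of the DILIps drug-induced liver injury prediction system; call rule not given here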;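 on HepSE liver fatty: hepatic side effect score for fatty liver, taken from the DILIps training set for predicting drug-induced liver injury; call rule not given here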;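 on HepSE liver function tests abnormal: hepatic side effect score taken from the DILIps (drug-induced liver injury prediction system) training data, here covering abnormal liver function test findings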
Hepatotoxicity [3] = tested on: Hepatotoxicity; remark: listed apart in the source;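 on HepSE Combined Scores: combined hepatic side effect score as listed in the training data of the Drug Induced Liver Injury Prediction System (DILIps)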;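 on HepSE elevated liver function tests: hepatic side effect score for raised liver function tests, as recorded in the DILIps training set used for predicting drug-induced liver injury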;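 on HepSE hepatitis: Hepatitis-related hepatic side effect score taken from the training data of DILIps, a prediction system for drug-induced liver injury; call rule not given here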;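 on HepSE hepatomegaly: hepatic side effect score for hepatomegaly, taken from the training set of the DILIps drug-induced liver injury prediction system; call rule not given here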;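 on HepSE liver fatty: hepatic side effect score for fatty liver, taken from the DILIps training set for predicting drug-induced liver injury; call rule not given here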;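 on HepSE liver function tests abnormal: hepatic side effect score taken from the DILIps (drug-induced liver injury prediction system) training data, here covering abnormal liver function test findings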
Hepatotoxicity [4] = tested on: Hepatotoxicity; remark: listed apart in the source;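 on HepSE Combined Scores: combined hepatic side effect score as listed in the training data of the Drug Induced Liver Injury Prediction System (DILIps)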;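 on HepSE hepatitis: Hepatitis-related hepatic side effect score taken from the training data of DILIps, a prediction system for drug-induced liver injury; call rule not given here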;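 on HepSE hepatomegaly: hepatic side effect score for hepatomegaly, taken from the training set of the DILIps drug-induced liver injury prediction system; call rule not given here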;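 on HepSE liver fatty: hepatic side effect score for fatty liver, taken from the DILIps training set for predicting drug-induced liver injury; call rule not given here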;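 on HepSE liver function tests abnormal: hepatic side effect score taken from the DILIps (drug-induced liver injury prediction system) training data, here covering abnormal liver function test findings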
Hepatotoxicity [5] = tested on: Hepatotoxicity; remark: listed apart in the source
Hepatotoxicity [6] = tested on: Hepatotoxicity; remark: listed apart in the source
Hepatotoxicity [7] = tested on: Hepatotoxicity; remark: listed apart in the source
Hepatotoxicity [8] = tested on: Hepatotoxicity; remark: listed apart in the source
Hepatotoxicity [9] = tested on: Hepatotoxicity; remark: listed apart in the source
Hepatotoxicity [10] = tested on: Hepatotoxicity; remark: listed apart in the source
Hepatotoxicity [11] = tested on: Hepatotoxicity; remark: listed apart in the source
Hepatotoxicity [12] = tested on: Hepatotoxicity; remark: listed apart in the source
Hepatotoxicity [13] = tested on: Hepatotoxicity; remark: listed apart in the source
Hepatotoxicity [14] = tested on: Hepatotoxicity; remark: listed apart in the source

CC(=O)Oc1c(C)cc(OCC(O)CNC(C)C)c(C)c1C (configuration not stated) [METIPRANOLOL]
HepSE_hepatomegaly (Hepatotoxicity [1]): 0 | HepSE_Combined Scores (Hepatotoxicity [2]): 0 | HepSE_hepatitis (Hepatotoxicity [3]): 0 | HepSE_liver function tests abnormal (Hepatotoxicity [4]): 0 | HepSE_liver fatty (Hepatotoxicity [5]): 0 | HepSE_bilirubinemia (Hepatotoxicity [6]): 0 | HepSE_hepatic necrosis (Hepatotoxicity [7]): 0 | HepSE_elevated liver function tests (Hepatotoxicity [8]): 0 | HepSE_liver disease (Hepatotoxicity [9]): 0 | HepSE_hepatic failure (Hepatotoxicity [10]): 0 | HepSE_jaundice (Hepatotoxicity [11]): 0 | HepSE_cirrhosis (Hepatotoxicity [12]): 0 | HepSE_cholecystitis (Hepatotoxicity [13]): 0 | HepSE_cholelithiasis (Hepatotoxicity [14]): 0

CCN(CC)CCNC(=O)c1cc(Cl)c(N)cc1OC [METOCLOPRAMIDE]
HepSE_hepatomegaly (Hepatotoxicity [1]): 0 | HepSE_Combined Scores (Hepatotoxicity [2]): 1 | HepSE_hepatitis (Hepatotoxicity [3]): 0 | HepSE_liver function tests abnormal (Hepatotoxicity [4]): 0 | HepSE_liver fatty (Hepatotoxicity [5]): 0 | HepSE_bilirubinemia (Hepatotoxicity [6]): 0 | HepSE_hepatic necrosis (Hepatotoxicity [7]): 0 | HepSE_elevated liver function tests (Hepatotoxicity [8]): 0 | HepSE_liver disease (Hepatotoxicity [9]): 0 | HepSE_hepatic failure (Hepatotoxicity [10]): 0 | HepSE_jaundice (Hepatotoxicity [11]): 1 | HepSE_cirrhosis (Hepatotoxicity [12]): 0 | HepSE_cholecystitis (Hepatotoxicity [13]): 0 | HepSE_cholelithiasis (Hepatotoxicity [14]): 0

Cc1ccccc1N1C(=O)c2cc(S(N)(=O)=O)c(Cl)cc2NC1C (configuration not stated) [METOLAZONE]
HepSE_hepatomegaly (Hepatotoxicity [1]): 0 | HepSE_Combined Scores (Hepatotoxicity [2]): 2 | HepSE_hepatitis (Hepatotoxicity [3]): 1 | HepSE_liver function tests abnormal (Hepatotoxicity [4]): 0 | HepSE_liver fatty (Hepatotoxicity [5]): 0 | HepSE_bilirubinemia (Hepatotoxicity [6]): 0 | HepSE_hepatic necrosis (Hepatotoxicity [7]): 0 | HepSE_elevated liver function tests (Hepatotoxicity [8]): 0 | HepSE_liver disease (Hepatotoxicity [9]): 0 | HepSE_hepatic failure (Hepatotoxicity [10]): 0 | HepSE_jaundice (Hepatotoxicity [11]): 1 | HepSE_cirrhosis (Hepatotoxicity [12]): 0 | HepSE_cholecystitis (Hepatotoxicity [13]): 0 | HepSE_cholelithiasis (Hepatotoxicity [14]): 0

COCCc1ccc(OCC(O)CNC(C)C)cc1 (configuration not stated) [METOPROLOL]
HepSE_hepatomegaly (Hepatotoxicity [1]): 0 | HepSE_Combined Scores (Hepatotoxicity [2]): 2 | HepSE_hepatitis (Hepatotoxicity [3]): 1 | HepSE_liver function tests abnormal (Hepatotoxicity [4]): 0 | HepSE_liver fatty (Hepatotoxicity [5]): 0 | HepSE_bilirubinemia (Hepatotoxicity [6]): 0 | HepSE_hepatic necrosis (Hepatotoxicity [7]): 0 | HepSE_elevated liver function tests (Hepatotoxicity [8]): 0 | HepSE_liver disease (Hepatotoxicity [9]): 0 | HepSE_hepatic failure (Hepatotoxicity [10]): 0 | HepSE_jaundice (Hepatotoxicity [11]): 1 | HepSE_cirrhosis (Hepatotoxicity [12]): 0 | HepSE_cholecystitis (Hepatotoxicity [13]): 0 | HepSE_cholelithiasis (Hepatotoxicity [14]): 0

Cc1ncc([N+](=O)[O-])n1CCO [METRONIDAZOLE]
HepSE_hepatomegaly (Hepatotoxicity [1]): 0 | HepSE_Combined Scores (Hepatotoxicity [2]): 1 | HepSE_hepatitis (Hepatotoxicity [3]): 1 | HepSE_liver function tests abnormal (Hepatotoxicity [4]): 0 | HepSE_liver fatty (Hepatotoxicity [5]): 0 | HepSE_bilirubinemia (Hepatotoxicity [6]): 0 | HepSE_hepatic necrosis (Hepatotoxicity [7]): 0 | HepSE_elevated liver function tests (Hepatotoxicity [8]): 0 | HepSE_liver disease (Hepatotoxicity [9]): 0 | HepSE_hepatic failure (Hepatotoxicity [10]): 0 | HepSE_jaundice (Hepatotoxicity [11]): 0 | HepSE_cirrhosis (Hepatotoxicity [12]): 0 | HepSE_cholecystitis (Hepatotoxicity [13]): 0 | HepSE_cholelithiasis (Hepatotoxicity [14]): 0

CC(C)(C(=O)c1cccnc1)c1cccnc1 [METYRAPONE]
HepSE_hepatomegaly (Hepatotoxicity [1]; Liver): 0 | HepSE_Combined Scores (Hepatotoxicity [2]; Liver): 0 | HepSE_hepatitis (Hepatotoxicity [3]; Liver): 0 | HepSE_liver function tests abnormal (Hepatotoxicity [4]; Liver): 0 | HepSE_liver fatty (Hepatotoxicity [5]; Liver): 0 | HepSE_bilirubinemia (Hepatotoxicity [6]; Liver): 0 | HepSE_hepatic necrosis (Hepatotoxicity [7]; Liver): 0 | HepSE_elevated liver function tests (Hepatotoxicity [8]; Liver): 0 | HepSE_liver disease (Hepatotoxicity [9]; Liver): 0 | HepSE_hepatic failure (Hepatotoxicity [10]; Liver): 0 | HepSE_jaundice (Hepatotoxicity [11]; Liver): 0 | HepSE_cirrhosis (Hepatotoxicity [12]; Liver): 0 | HepSE_cholecystitis (Hepatotoxicity [13]; Liver): 0 | HepSE_cholelithiasis (Hepatotoxicity [14]; Liver): 0

Cc1cccc(C)c1OCC(C)N (configuration not stated) [MEXILETINE]
HepSE_hepatomegaly (Hepatotoxicity [1]; Liver): 0 | HepSE_Combined Scores (Hepatotoxicity [2]; Liver): 3 | HepSE_hepatitis (Hepatotoxicity [3]; Liver): 1 | HepSE_liver function tests abnormal (Hepatotoxicity [4]; Liver): 1 | HepSE_liver fatty (Hepatotoxicity [5]; Liver): 0 | HepSE_bilirubinemia (Hepatotoxicity [6]; Liver): 0 | HepSE_hepatic necrosis (Hepatotoxicity [7]; Liver): 1 | HepSE_elevated liver function tests (Hepatotoxicity [8]; Liver): 0 | HepSE_liver disease (Hepatotoxicity [9]; Liver): 0 | HepSE_hepatic failure (Hepatotoxicity [10]; Liver): 0 | HepSE_jaundice (Hepatotoxicity [11]; Liver): 0 | HepSE_cirrhosis (Hepatotoxicity [12]; Liver): 0 | HepSE_cholecystitis (Hepatotoxicity [13]; Liver): 0 | HepSE_cholelithiasis (Hepatotoxicity [14]; Liver): 0

CCCCCOc1ccc(-c2cc(-c3ccc(C(=O)N[C@H]4C[C@@H](O)[C@@H](O)NC(=O)[C@@H]5[C@@H](O)[C@@H](C)CN5C(=O)[C@H]([C@H](O)CC(N)=O)NC(=O)[C@H]([C@H](O)[C@@H](O)c5ccc(O)c(OS(=O)(=O)O)c5)NC(=O)[C@@H]5C[C@@H](O)CN5C(=O)[C@H]([C@@H](C)O)NC4=O)cc3)no2)cc1 [MICAFUNGIN] (X1-[Orn(4R-OH,5R-OH)]T[Hyp][hTyr(3S-OH,4S-OH,3'-OSO3H)][Gln(3R-OH)][Pro(3S-OH,4S-Me)]; lactam 1-C)
HepSE_hepatomegaly (Hepatotoxicity [1]): 1 | HepSE_Combined Scores (Hepatotoxicity [2]): 6 | HepSE_hepatitis (Hepatotoxicity [3]): 0 | HepSE_liver function tests abnormal (Hepatotoxicity [4]): 1 | HepSE_liver fatty (Hepatotoxicity [5]): 0 | HepSE_bilirubinemia (Hepatotoxicity [6]): 1 | HepSE_hepatic necrosis (Hepatotoxicity [7]): 0 | HepSE_elevated liver function tests (Hepatotoxicity [8]): 0 | HepSE_liver disease (Hepatotoxicity [9]): 1 | HepSE_hepatic failure (Hepatotoxicity [10]): 1 | HepSE_jaundice (Hepatotoxicity [11]): 1 | HepSE_cirrhosis (Hepatotoxicity [12]): 0 | HepSE_cholecystitis (Hepatotoxicity [13]): 0 | HepSE_cholelithiasis (Hepatotoxicity [14]): 0

Clc1ccc(COC(Cn2ccnc2)c2ccc(Cl)cc2Cl)c(Cl)c1 (configuration not stated) [MICONAZOLE]
HepSE_hepatomegaly (Hepatotoxicity [1]): 0 | HepSE_Combined Scores (Hepatotoxicity [2]): 0 | HepSE_hepatitis (Hepatotoxicity [3]): 0 | HepSE_liver function tests abnormal (Hepatotoxicity [4]): 0 | HepSE_liver fatty (Hepatotoxicity [5]): 0 | HepSE_bilirubinemia (Hepatotoxicity [6]): 0 | HepSE_hepatic necrosis (Hepatotoxicity [7]): 0 | HepSE_elevated liver function tests (Hepatotoxicity [8]): 0 | HepSE_liver disease (Hepatotoxicity [9]): 0 | HepSE_hepatic failure (Hepatotoxicity [10]): 0 | HepSE_jaundice (Hepatotoxicity [11]): 0 | HepSE_cirrhosis (Hepatotoxicity [12]): 0 | HepSE_cholecystitis (Hepatotoxicity [13]): 0 | HepSE_cholelithiasis (Hepatotoxicity [14]): 0

Cc1ncc2n1-c1ccc(Cl)cc1C(c1ccccc1F)=NC2 [MIDAZOLAM]
HepSE_hepatomegaly (Hepatotoxicity [1]): 0 | HepSE_Combined Scores (Hepatotoxicity [2]): 0 | HepSE_hepatitis (Hepatotoxicity [3]): 0 | HepSE_liver function tests abnormal (Hepatotoxicity [4]): 0 | HepSE_liver fatty (Hepatotoxicity [5]): 0 | HepSE_bilirubinemia (Hepatotoxicity [6]): 0 | HepSE_hepatic necrosis (Hepatotoxicity [7]): 0 | HepSE_elevated liver function tests (Hepatotoxicity [8]): 0 | HepSE_liver disease (Hepatotoxicity [9]): 0 | HepSE_hepatic failure (Hepatotoxicity [10]): 0 | HepSE_jaundice (Hepatotoxicity [11]): 0 | HepSE_cirrhosis (Hepatotoxicity [12]): 0 | HepSE_cholecystitis (Hepatotoxicity [13]): 0 | HepSE_cholelithiasis (Hepatotoxicity [14]): 0

COc1ccc(OC)c(C(O)CNC(=O)CN)c1 (configuration not stated) [MIDODRINE]
HepSE_hepatomegaly (Hepatotoxicity [1]): 0 | HepSE_Combined Scores (Hepatotoxicity [2]): 0 | HepSE_hepatitis (Hepatotoxicity [3]): 0 | HepSE_liver function tests abnormal (Hepatotoxicity [4]): 0 | HepSE_liver fatty (Hepatotoxicity [5]): 0 | HepSE_bilirubinemia (Hepatotoxicity [6]): 0 | HepSE_hepatic necrosis (Hepatotoxicity [7]): 0 | HepSE_elevated liver function tests (Hepatotoxicity [8]): 0 | HepSE_liver disease (Hepatotoxicity [9]): 0 | HepSE_hepatic failure (Hepatotoxicity [10]): 0 | HepSE_jaundice (Hepatotoxicity [11]): 0 | HepSE_cirrhosis (Hepatotoxicity [12]): 0 | HepSE_cholecystitis (Hepatotoxicity [13]): 0 | HepSE_cholelithiasis (Hepatotoxicity [14]): 0

CC#C[C@]1(O)CC[C@H]2[C@@H]3CCC4=CC(=O)CCC4=C3[C@@H](c3ccc(N(C)C)cc3)C[C@@]21C [MIFEPRISTONE]
HepSE_hepatomegaly (Hepatotoxicity [1]): 0 | HepSE_Combined Scores (Hepatotoxicity [2]): 0 | HepSE_hepatitis (Hepatotoxicity [3]): 0 | HepSE_liver function tests abnormal (Hepatotoxicity [4]): 0 | HepSE_liver fatty (Hepatotoxicity [5]): 0 | HepSE_bilirubinemia (Hepatotoxicity [6]): 0 | HepSE_hepatic necrosis (Hepatotoxicity [7]): 0 | HepSE_elevated liver function tests (Hepatotoxicity [8]): 0 | HepSE_liver disease (Hepatotoxicity [9]): 0 | HepSE_hepatic failure (Hepatotoxicity [10]): 0 | HepSE_jaundice (Hepatotoxicity [11]): 0 | HepSE_cirrhosis (Hepatotoxicity [12]): 0 | HepSE_cholecystitis (Hepatotoxicity [13]): 0 | HepSE_cholelithiasis (Hepatotoxicity [14]): 0

OCCN1C[C@H](O)[C@@H](O)[C@H](O)[C@H]1CO [MIGLITOL]
HepSE_hepatomegaly (Hepatotoxicity [1]): 0 | HepSE_Combined Scores (Hepatotoxicity [2]): 0 | HepSE_hepatitis (Hepatotoxicity [3]): 0 | HepSE_liver function tests abnormal (Hepatotoxicity [4]): 0 | HepSE_liver fatty (Hepatotoxicity [5]): 0 | HepSE_bilirubinemia (Hepatotoxicity [6]): 0 | HepSE_hepatic necrosis (Hepatotoxicity [7]): 0 | HepSE_elevated liver function tests (Hepatotoxicity [8]): 0 | HepSE_liver disease (Hepatotoxicity [9]): 0 | HepSE_hepatic failure (Hepatotoxicity [10]): 0 | HepSE_jaundice (Hepatotoxicity [11]): 0 | HepSE_cirrhosis (Hepatotoxicity [12]): 0 | HepSE_cholecystitis (Hepatotoxicity [13]): 0 | HepSE_cholelithiasis (Hepatotoxicity [14]): 0
